One data set deals with Bhas 42 cell line. Description: Bhas 42 cell transformation assay (carcinogenesis). The format is cell-based. As to the method: This assay was carried out by adapting the in vitro Bhas 42 cell transformation assay method described in the OECD Guidance Document No. 231 ([2017]) based on the work of Sasaki et al. ([2014]).
It consists of two assays with a different test compound addition schedule to identify compounds with initiating activity (tumour initiators) or promoting activity (tumour promoters). Previously, a cell growth assay for 7 days is performed to set the assay doses of the CTA and another cell growth assay is concurrently performed to the CTA to verify that the selected doses meet the acceptance criteria for the tests.
The carcinogenesis potential of the compound was assayed by means of measuring the frequency of transformed foci (morphologically altered cells that form discrete anchorage-independent colonies) in the Bhas 42 cell line, which can be extrapolated to an assessment of carcinogenic potential. In the transformation assay, the incubation of compounds with two different treatment schedules allowed to identify the initiating or promoting carcinogenic potential of the compounds.

The subject of data set [1] is CHO-K1 (Chinese hamster ovary cells). The class given is cell-based. To be noted: 6 h with or without S9, 24 h without S9. The method, then:
The in vitro micronucleus test is a genotoxicity test for the detection of micronuclei in the cytoplasm of interphase cells. Tests were conducted in the presence of the cytokinesis blocker cytochalasin B with three different treatment schedules: (i) short treatment for 6 h; (ii) short treatment for 6 h in the presence of an exogenous source of metabolic activation (cofactor supplemented S9 liver fraction); and (iii) extended treatment for 24 h.
CHO-K1 (Chinese hamster ovary cells, ATCC Item Number CCL-61) were cultured in DMEM F-12 containing 10% foetal bovine serum and 100 units/ml penicillin/100 μg/ml streptomycin (all from Sigma-Aldrich, St Louis, USA). Cells were seeded at 3000 cells/well in a collagen-coated 96-well plate in 100 μl. After 24 h, cells were incubated with CellTracker Orange CMTMR cellular dye solution (Invitrogen, Waltham, USA) for 1 h. Cells were then treated with compounds for 6 h, with or without S9 metabolic activation, or 24 h without S9 metabolic activation. […] After the 6-h compound treatment, cells were incubated with cytochalasin B (Alfa Aesar, Kandel, Germany) for 24 h. In case of 24-h treatment, cells were incubated with compounds in the presence of cytochalasin B and harvested after treatment. Benzo(a)pyrene, mitomycin C, and colchicine were used as positive controls for 6 h, with or without metabolic activation or 24 h treatments, respectively. […] After several washes with BupH-modified DPBS, cells were analysed in an Operetta High-Content Imaging System (PerkinElmer, Waltham, USA). […] Statistical significance was determined with the ANOVA test with significance level adjusted to p < 0.05.

For another data set, the system named is zebrafish embryos. An excerpt: In REACH, most of the mammalian tests for chemical safety assessment are related to reproductive toxicity (ECHA [2020]; Rovida and Hartung [2009]; Sellick [2011]) and consider complex molecular and cellular mechanisms determined in long-term experiments with very low throughput. To avoid the use of animals and to assay reproductive toxicity in a relevant 'non-animal' model adhering to the 3Rs rule, we used zebrafish embryos up to 120 hpf. Up to this developmental stage, the embryos are not considered animals according to European legislation (Sellick [2011]). When they reach the stage of independent feeding, zebrafish embryos become subject to regulations for animal experimentation. We performed a set of previously described experiments to cover a wide range of potential reprotoxic effects, including terato-carcinogenesis, developmental neurotoxicity, and endocrine disruption.
Zebrafish embryos obtained and maintained as described previously for toxicity determination were used to determine (I) terato-carcinogenesis assayed as previously informed (Selderslaghs et al. [2009], [2012]) with modifications. In brief, embryos were incubated for 0 hpf up to 120 hpf in the presence and absence of tested compounds. Each condition was assayed in triplicate with 12 embryos per condition per replicate. The appearance of selected characteristics and malformations with respect to normal development were quantified for the eyes, otoliths, heart, circulation, hatching, skeletal deformities, and body position. For each concentration tested, we assessed the mortality and the presence of malformations at 24, 48, 72, 96, and 120 hpf using a light microscope. When possible, the lethal effects (LC50) and terato-carcinogenic effects (EC50) were determined using the ToxRat software. Based on these values, a teratogenic index (TI) was calculated as LC50/EC50. Based on previous studies, we considered a compound to be a teratogen when TI > 2 at 120 hpf. When no TI could be calculated due to no malformations induction to a degree extensive enough to calculate the EC50 in the presence of high toxicity, the compound was considered a non-teratogen. (II) Neurotoxicity was assayed by evaluating the locomotor activity in embryos exposed to the tested compounds from 0 to 120 hpf using Zebrabox and Zebralab (ViewPoint). We tested three concentrations (24 embryos per concentration) below the NOEC to avoid readily toxic concentrations. After incubation with tested compounds for 120 hs in 96-well plates, the activity of larvae in response to transitions from dark to light was evaluated. The protocol involved an initial 10 min acclimation period inside the Zebrabox, followed by three cycles of light–dark of 10 min each. After the end of each cycle, the integrated activity of each embryo was registered. Statistical analysis was done using ANOVA, followed by the Tukey post hoc test. Differences were considered significant when p < 0.05. Dead embryos were not considered in the analysis. (III) The endocrine-disrupting effect in zebrafish embryos was assayed by real-time PCR as previously reported (Jarque et al. [2019]) with modifications. In brief, 0 hpf embryos (12 embryos per condition in triplicate) were incubated with selected compounds for up to 120 hpf. After incubation, treated (embryos incubated at the concentration right below the NOEC) and control embryos were collected in RNA later and kept at − 20°C until use. RNA was extracted from the samples using the RNeasy Mini Kit (QIAGEN) and was followed by cDNA synthesis using random primers and the AffinityScript Multi Temperature cDNA Synthesis Kit (Agilent Technologies).

Data set [2] is described as follows: CMR experimental result (carcinogenicity, micronucleus and reprotoxicity combined, logical OR). From the text:
For comparison with the prediction results, the results of the carcinogenicity, micronucleus, and reprotoxicity assays were combined using a logical OR operator. Therefore, we consider that compounds with a positive result for any of these three experimental assays is a CMR positive.

The mark [3] stands for this setting: significant increase in foci frequency in at least two sequential concentrations.
Setting [4] is: positive in any of the three experimental assays.
[5] abbreviates: 0 to 120 hpf, teratogen when TI > 2.

From article PMC10025185, “A continuous in silico learning strategy to identify safety liabilities in compounds used in the leather and textile industry” (Archives of Toxicology, 2023) come the findings set out here.

Like-named read-outs stand apart in the source and are kept apart here.

`CCCCC(CC)CN` (stereo not drawn) [2-Ethylhexylamine]: the “Carcinogen (C)” value with Bhas 42 cell line is given as “Yes”. For the same compound, the “Micronucleus assay (M)” value in data set [1] is given as “Negative”. Further, the “Reprotoxicity (R) Teratogen” value with zebrafish embryos (in vivo) is “No”.

In the case of `CNC(=O)c1cc(Cl)ccn1.Cl` [4-Chloro-N-methylpyridine-2-carboxamide hydrochloride (1:1)], in the data set with Bhas 42 cell line, the “Carcinogen (C)” value is reported as “No”. For the same compound, the “Micronucleus assay (M)” value in data set [1] is reported as “Negative”. In addition, in data set [2], the CMR experimental result is “NO”. Moreover, in the data set on zebrafish embryos (in vivo), the “Reprotoxicity (R) Experimental conclusion” value is “No” and the “Reprotoxicity (R) Teratogen” value is reported as “No”.

In the case of `CCN(CC)c1ccc(N=Nc2c(Cl)cc([N+](=O)[O-])cc2[N+](=O)[O-])c(NC(C)=O)c1` [N-[2-[(2-chloro-4,6-dinitrophenyl)azo]-5-(diethylamino)phenyl]acetamide], in the data set with Bhas 42 cell line (setting [3]), the “Carcinogen (C)” value is “Yes”. Further, in data set [1], the “Micronucleus assay (M)” value is listed as “Negative”. In addition, in data set [2] (setting [4]), the CMR experimental result was “YES”. Also, the “Reprotoxicity (R) Teratogen” value in the data set on zebrafish embryos (setting [5]) was “No”.

`O=C(OCCc1ccccc1)c1ccccc1` [Phenethyl benzoate]: the “Carcinogen (C)” value in the data set with Bhas 42 cell line is listed as “No”. The “Micronucleus assay (M)” value in data set [1] is “Negative”. Further, in the data set with zebrafish embryos (in vivo), the “Reprotoxicity (R) Experimental conclusion” value is reported as “No” and the “Reprotoxicity (R) Teratogen” value is given as “No”.

As for “Reaction mass of cis-4-(isopropyl) cyclohexanemethanol and trans-4-(isopropyl) cyclohexanemethanol”, the “Carcinogen (C)” value in the data set with Bhas 42 cell line (setting [3]) is given as “Yes”. Also, the “Micronucleus assay (M)” value in data set [1] is reported as “Negative”. Also, the CMR experimental result in data set [2] (setting [4]) is reported as “YES”. In addition, the “Reprotoxicity (R) Teratogen” value with zebrafish embryos (setting [5]) is reported as “No”. In the data set on zebrafish embryos (positive in any of the three assays), the “Reprotoxicity (R) Experimental conclusion” value was “No”.
